Experimental data reported in patent US5885998A (priority 1998, dated 1999).

Experiments:
[1] = system: synaptosomes from the striatal area of rat brain (dopamine release); assay: Dopamine release from striatal synaptosomes; assay type: cell-based, rat (Sprague-Dawley)
Experimental: Dopamine release was measured by preparing synaptosomes from the striatal area of rat brain obtained from Sprague-Dawley rats generally according to the procedures set forth by Nagy et al., J. Neurochem., Vol. 43, pp. 1114-1123 (1984). Striata from 4 rats were homogenized in 2 ml of 0.32M sucrose buffered with 5 mM HEPES (pH 7.5), using a glass-Teflon tissue grinder. The homogenate was diluted to 5 ml with additional homogenization solution and centrifuged at 1,000×g for 10 min. This procedure was repeated on the new pellet and the resulting supernatant was centrifuged at 12,000×g for 20 min. A 3 layer discontinuous Percoll gradient consisting of 16 percent, 10 percent and 7.5 percent Percoll in HEPES-buffered sucrose was made with the final pellet dispersed in the top layer. […] Using this method, 30 to 90 percent of the dopamine was taken up into the synaptosomes, as determined by scintillation counting following filtration through glass fiber filters soaked with 0.5 percent polyethyleneimine. […] After the addition of 0.2 ml of a solution containing various concentrations of ligand, the perfusate was collected into scintillation vials at 1 min. intervals and the dopamine released was quantified by scintillation counting. Peaks of radioactivity released above background were summed and the average basal release during that time was subtracted from the total.

[2] = literature report; cited from earlier work
[3] = literature report; cited from earlier work; remark: listed apart in the source

## CNCC/C=C\c1cccnc1 [Sample No. 5, (Z)-metanicotine]
[1]; release as percentage of release obtained with an equal concentration of (S)-(-)-nicotine
  Dopamine Release Emax: 88 % nicotine

## CNCC/C=C/c1cccnc1 [Sample No. 8, (E)-metanicotine]
[1]; Rattus norvegicus
  Emax: 80%

## CN1CCC[C@H]1c1cccnc1 [Sample No. C-1, (S)-(-)-nicotine]
[2]
  effect towards the treatment of various CNS disorders: positive effect towards the treatment of various CNS disorders

## CN1CCCC1c1cccnc1 (stereo not shown) [nicotine]
[3]
  potentiation of certain pharmaceutical compositions used for treatment of certain CNS disorders: potentiates the pharmacological behavior of certain pharmaceutical compositions
